According to patent US20190307728A1, “METHODS OF TREATMENT WITH A 2,4,5-TRISUBSTITUTED 1,2,4-TRIAZOLONE” (Bayer Pharma Aktiengesellschaft, priority 2018, published 2019):
pEC50, pIC50: −log10 of the molar value.

Key:
Assay in all cases: Cell proliferation panel assay
Format in all cases: cell-based
Colo 320DM = conditions: Homo sapiens, 72 h, Colorectal carcinoma, 3-day incubation, read-out: Cell Count IC50
CaOV3 = conditions: Homo sapiens, Caov-3, 72 h; CaOV3, Ovarian carcinoma, 3-day incubation; read-out: Cell Count IC50
ARH-77 = conditions: Homo sapiens, 72 h; ARH-77, Leukemia, 3-day incubation; read-out: Cell Count EC50
CEM-C1 = conditions: 72 h; CEM-C1, Leukemia, 3-day incubation; read-out: Cell Count EC50
HT-29 = conditions: Homo sapiens, 72 h; HT-29, Colorectal carcinoma, 3-day incubation; read-out: Cell Count IC50
G-401 = conditions: Homo sapiens, 72 h; G-401, Kidney cancer, 3-day incubation; read-out: Cell Count IC50
Mia PaCa-2 = conditions: Homo sapiens, 72 h; Mia PaCa-2, Pancreatic cancer, 3-day incubation; read-out: Cell Count IC50
MEG01 = conditions: Homo sapiens, MEG-01, 72 h; MEG01, Leukemia, 3-day incubation; read-out: Cell Count EC50
MV-4-11 = conditions: Homo sapiens, MV4-11, 72 h; MV-4-11, Leukemia, 3-day incubation; read-out: Cell Count IC50
U266B1 = conditions: 72 h; U266B1, Multiple Myeloma, 3-day incubation; read-out: Cell Count IC50
A498 = conditions: Homo sapiens, 72 h, A498, Renal cell carcinoma, 3-day incubation
Procedure: (§1) Cells were grown in RPMI 1640, 10% FBS, 2 mM L-alanyl-L-glutamine, 1 mM Na pyruvate or a special medium. Cells were seeded into 384-well plates and incubated in a humidified atmosphere of 5% CO2 at 37° C. Compounds were added the day following cell seeding. At the same time, a time zero untreated cell plate was generated. After a 3-day incubation period, cells were fixed and stained to allow fluorescence imaging of nuclei.
(§2) Compounds were serially diluted in half-log steps from the highest test concentration 10 μM, and assayed over 10 concentrations with a maximum assay concentration of 0.1% DMSO. Automated fluorescence microscopy was carried out using a Molecular Devices ImageXpress Micro XL high-content imager, and images were collected with a 4× objective. 16-bit TIFF images were acquired and analyzed with MetaXpress 5.1.0.41 software.
(§3) Cell proliferation was measured by the fluorescence intensity of an incorporated nuclear dye. The output is referred to as the relative cell count, where the measured nuclear intensity is transformed to percent of control (POC) using the following formula: […]
(§4) Cellular response parameters were calculated using nonlinear regression to a sigmoidal single-site dose response model:
(§5) Where y is a response measured at concentration x, A and B are the lower and upper limits of the response, C is the concentration at the response midpoint (EC50), and D is the Hill Slope (Fallahi-Sichani, M., S. Honardejad, L. M. Heiser, J. W. Gray, and P. K. Sorger (2013). Metrics other than potency reveal systematic variation in responses to cancer drugs. Nat. Chem. Biol. 9: 708-714.).
(§6) Cell count IC50 is the test compound concentration at 50% of maximal possible response. EC50 is the test compound concentration at the curve inflection point or half the effective response (parameter C of the fitted curve solution).

PANC-1 = conditions: Homo sapiens, 72 h, PANC-1, Pancreatic cancer, 3-day incubation
Procedure: as §1, §2, §3, §4, §5, §6

MHH-PREB-1 = conditions: Homo sapiens, 72 h; MHH-PREB-1, Lymphoma, 3-day incubation; read-out: Cell Count IC50
SU.86.86 = conditions: Homo sapiens, 72 h; SU.86.86, Pancreatic cancer, 3-day incubation; read-out: Cell Count IC50
DMS114 = conditions: Homo sapiens, DMS-114, 72 h; DMS114, Lung cancer, 3-day incubation; read-out: Cell Count IC50

CCn1c(CO)nn(-c2cc(O[C@@H](C)C(F)(F)F)c(C(=O)Nc3c(F)cccc3Cl)cc2F)c1=O [Example 1, N-(2-chloro-6-fluorophenyl)-4-[4-ethyl-3-(hydroxymethyl)-5-oxo-4,5-dihydro-1H-1,2,4-triazol-1-yl]-5-fluoro-2-{[(2S)-1,1,1-trifluoropropan-2-yl]oxy}benzamide]
pIC50 (Colo 320DM): 8.29
pIC50 (CaOV3): < 5.00
pEC50 (ARH-77): 9.04
pEC50 (CEM-C1): 9.04
pIC50 (HT-29): 7.96
pIC50 (G-401): < 5.00
pIC50 (Mia PaCa-2): < 5.00
pEC50 (MEG01): 9.18
pIC50 (MV-4-11): 8.92
pIC50 (U266B1): < 5.00
pEC50 (A498; read-out: Cell Count EC50): < 5.00
pIC50 (A498; read-out: Cell Count IC50): < 5.00
pEC50 (PANC-1; read-out: Cell Count EC50): 8.46
pIC50 (PANC-1; read-out: Cell Count IC50): < 5.00
pIC50 (MHH-PREB-1): 9.08
pIC50 (SU.86.86): < 5.00
pIC50 (DMS114): < 5.00
